Reference: patent US20240050463A1, “THERAPEUTIC COMPOSITIONS AND METHODS FOR TREATING HEPATITIS B” (ARBUTUS BIOPHARMA CORPORATION, priority 2016, published 2024)

Test system: hepatitis B virus (HBV)
Experiment: Serum HBsAg in AAV1.2 mouse model of HBV, enzyme immunoassay
Assay type: in vivo, C57/Bl6 mice
Settings: D0 (pre-treatment); Compound 20 3.0 mg/kg oral twice daily Days 0-28; HBV siRNA 0.3 mg/kg IV Day 0
Protocol: This viral vector contains a 1.2-fold overlength copy of the HBV genome and expresses HBV surface antigen (HBsAg) amongst other HBV products. Serum HBsAg expression in mice was monitored using an enzyme immunoassay. Animals were sorted (randomized) into groups based on serum HBsAg levels such that a) all animals were confirmed to express HBsAg and b) HBsAg group means were similar to each other prior to initiation of treatments.
Animals were treated with Compound 20 as follows: Starting on Day 0, a 3.0 mg/kg dosage of Compound 20 was administered orally to animals on a twice-daily frequency for a total of 56 doses between Days 0 and 28. Compound 20 was dissolved in a co-solvent formation for administration. Negative control animals were administered either the co-solvent formulation alone, or were not treated with any test article. Animals were treated with lipid nanoparticle (LNP)-encapsulated HBV-targeting siRNAs as follows: On Day 0, an amount of test article equivalent to 0.3 mg/kg siRNA was administered intravenously. The HBsAg expression levels for each treatment were compared against the Day 0 (pre-dose) values for that group.
The effect of these treatments was determined by collecting blood on Days 0 (pre-treatment), 7, 14, and 28 and analyzing it for serum HBsAg content.

Structure (SMILES): COCCCOc1cc2c(cc1OC)-c1cc(=O)c(C(=O)O)cn1[C@H](C(C)C)C2 [Compound 20]
- Serum HBsAg, percentage of individual animal pre-treatment baseline value at Day 0 (mean ± SEM): 100 ± 0%
